The text below walks through data of patent US10875898B2, “Bioactive protein, use thereof and method for its production” (Koppert B.V., priority 2014, dated 2020).

Experiment [1] relates to Cucumis sativus. The experiment is described as follows: seed germination of cucumber on MS agar. Type of experiment: in vivo. The conditions noted are these: 10^−8 M in agar medium. Here is the method: FIG. 12: Effect of purified HYTLO1 on the growth of Arabidopsis (A), percentage seed germination of cucumber (B) and plantlet development of Lotus japonicus (C). A: Arabidopsis thaliana (Columbia-0: Col-0) seeds were sown in Levington's F2 compost plus sand (JFC Munro, Devon; http://www.jfcmonro.com) and chilled for 2 days at 4° C. Plants were grown under short-day conditions (10 h light) in a controlled environment chamber, at 22° C. during the day and 18° C. at night with 60% relative humidity for 5-6 weeks before transplanting. Ten ml of sterile solutions of HYTLO1 were drenched every two days at concentrations 0.072 μg/ml (0.01 μM) for one month in each pot containing 100 ml of soil and 1 Arabidopsis plant. Untreated plants were used as controls. B: Sterile cucumber seeds were placed on magenta box containing half-strength Murashige and Skoog salt (MS) medium (ICN Biomedicals) containing 1% agar and 1.5% sucrose, adjusted to pH 5.7, and vernalized for 2 days at 4° C. in the absence of light. A sterile solutions of HYTLO1 was added to the substrate at final concentration of 10^−8 M before the solidification of agar. C: The same concentration of HYTLO1 was used in the agarized medium used for the L. japonicus test. […]

Experiment [2] deals with tomato leaves. The experiment in a line: activation of tomato plant defense responses after leaf injection. Type of experiment: in vivo. How it is done: FIG. 5: Effect of purified HYTLO1 (5 μM) injected on tomato leaves after 48 hours under UV light. Fluorescence is due to accumulation of compounds related to plant defense response.
FIG. 6: Effect of purified HYTLO1 ([…]) on the activation of tomato plant defense responses. Leaves were injected with […] of the protein solution and analyzed after 24 and 48 hours for the production of: (A) anion superoxide (XTT assay, mg p.s.=milligram of dry weight), (B) SOD activity (U/mg proteins), (C) ROOH peroxide accumulation (FOX1 assay), (D) LOX activity, (E) phytoalexin rishitin accumulation (g f.w.=gram of leaf fresh weight). Values are means+S.E. Methods used are the followings. Lyophilized plant tissues (10 mg) from HYTLO1-injected and -non injected tomato leaves were collected at different time points after inoculation (from 6 to 48 h) and homogenized. Anion superoxide was detected by measuring the reduction of 2,3-bis(2-methoxy-4-nitro-5-sulfophenyl)-5-[(phenylamino) carbonyl]-2H-tetrazolium hydroxide (XTT) to formazan, according to Sutherland, M. W., and B. A. Learmonth, 1997, Free Radical Research, 27:283-289, with modifications reported by Castoria, R., et al., 2003, Phytopathology, 93:564-572. Absorbance at 490 nm was measured in a microplate reader. XTT levels were expressed as mean absorbance values mg-1±standard errors. The activities of SOD, pH 7.8 and 10.0 (EC 1.15.1.1) and LOX enzymes (EC 1.13.11.12) were quantified as described by Reverberi M, et al., 2005, Free Radical Research, 39:637-647. Total hydroperoxides (ROOH) were detected by using the FOX spectrophotometric assay by monitoring the oxidation of xylenol orange at 560 nm (Ferrous ion oxidation xylenol orange: FOX-1) (Banerjee D, et al., 2003, Clinica Chimica Acta, 337:147-152). Quantification of the phytoalexins rishitin was performed by treating the leaf samples with methylene chloride (2 ml) in the presence of 100 mg of BHT. The tubes were left in a fume hood for 15/20 minutes and occasionally shaken. The extracts were filtered on filter paper Whatmann 3 MM and dried under nitrogen flow. Rishitin was quantified by GC-MS as described in Fanelli et al., 1992, Natural Toxins 1: 136-146.
FIG. 7: Effect of purified HYTLO1 on the activation of tomato plant defense responses. Leaves were injected with HYTLO1 at the indicated concentrations and analyzed after 48 hours by Real Time PCR for the accumulation of PR (Pathogenesis-Related)-proteins PR1, PR2 and PIN2 RNA (for methods see Tucci M., et al., 2011, Molecular Plant Pathology, 12:341-354) Values indicated the n. of fold increase vs. untreated control.
We analyzed the plant biochemical reaction to HYTLO1, which resulted stimulatory for the formation of the superoxide anion and hydrogen peroxide, for anion superoxide dismutase (SOD) and LOX activity, and the accumulation of the phytoalexin rishitin (FIG. 6).

Experiment [3] concerns B. cinerea. The experiment is described as follows: infection of tomato leaves by the pathogen B. cinerea. In kind it is in vivo, Botrytis cinerea. The conditions noted are these: 10 μL applied to tomato leaf 2 hours before B. cinerea spores; up to 72 hr after inoculation. Here is the method: FIG. 8: Effect of purified HYTLO1 application on the infection of tomato leaves by the pathogen B. cinerea. 10 μL of a solution of HYTLO1 were applied to tomato leaves and 2 hours later 10 μL of a B. cinerea spore suspension 1×10^6/ml were applied on the same spot. The measures were taken 72 hours post inoculation. The standard deviation bars were obtained from at least three different experiments, with five replicates and a total of 15 treated leaves per treatment. In order to determine if purified HYTLO1 is able to protect the plant from foliar infection by a pathogenic fungus, the protein was tested on tomato grown-up plants against Botrytis cinerea.

Setting [4] is: 0.15, 2.5, 5.0 mM, 24 and 48 hours.

Turning to “HYTLO1: about 7 KDa Type II hydrophobin protein from Trichoderma longibrachiatum strain MK1, 71 aa, SEQ ID NO: 1”, the “growth promotion effect (percentage seed germination)” value in experiment [1] is given as “confirmed”. For the same substance, the “accumulation of fluorescent compounds under UV light” value in experiment [2] (5 μM injected on tomato leaves, after 48 hours) is listed as “accumulation of fluorescent compounds”. Also, in experiment [2] (setting [4]), the LOX activity entry is listed as “stimulatory”; the “accumulation of the phytoalexin rishitin” value was “stimulatory”; the “anion superoxide dismutase (SOD) activity” value is given as “stimulatory”; the “formation of hydrogen peroxide (ROOH, FOX1 assay)” value was “stimulatory”. The “formation of the superoxide anion (XTT assay)” value in experiment [2] (setting [4]) is reported as “stimulatory”. Besides, the “defense responses in leaves distant from the site of application” value in experiment [2] (tomato leaf injection) is “systemic effect”. In addition, the “activation of defense-related genes PR1, PR2 and PIN1 (RT-PCR)” value in experiment [2] (tomato leaves, 48 hours) is reported as “induced the activation”. For the same substance, the “concentration of HYTLO1 that significantly reduced the size of the necrotic area” value in experiment [3] was “above 1.25 μM”.
